The text below walks through data of US20240238256A1, “NITAZOXANIDE IN THE TREATMENT OF SEPSIS” (GENFIT, priority 2021, published 2024).

Experiment [1] has as its system polymicrobial sepsis induced by cecal ligation and puncture (CLP). Description: CLP-induced polymicrobial sepsis, survival (Example 1). The experiment is classed as in vivo, C57BL6J male mice. The text has this:
Polymicrobial sepsis induced by cecal ligation and puncture (CLP) is characterized by dysregulated systemic inflammatory responses followed by immunosuppression. The CLP model in mice mimics the progression and features of human sepsis and is thus also useful to determine whether a drug would be efficient in the treatment of prevention of transition from sepsis to septic shock.
This study aims to investigate the efficacy of NTZ in CLP model in C57BL6J (BL6) male mice. The efficacy of the test compound was evaluated based on the survival rate of the animals within the study period.
C57BL6J male mice (supplier Janvier—France) at 9 weeks of age and weighing 23-25 g on arrival were anesthetized with 250 µL of xylazine/ketamine solution (6.75 mg/kg for ketamine (Imalgene, Boehringer, Germany) et 2.5 mg/kg for xylazine (Rompund 2%, Bayer, Germany)) by intraperitoneal route. A 1-1.5 cm abdominal midline incision was made, and the cecum was located and tightly ligated at half the distance between distal pole and the base of the cecum with 4-0 silk suture (mild grade). The caecum was punctured through-and-through once with a 21-gauge needle from mesenteric toward antimesenteric direction after medium ligation. A small amount of stool was extruded to ensure that the wounds were patent. Then the cecum was replaced in its original position within the abdomen, which was closed with sutures and wound clips. Mice were followed for body weight evolution and mortality rate until Day 7.
NTZ (Interchim, France) was administered by oral gavage at 50 mg/kg BID. NTZ treatment was initiated 3 days before CLP. The day of the surgery, NTZ was given once (50 mg/kg) 1 h before CLP and then a second time when animals have recovered from anesthesia (50 mg/kg). BID treatments was then pursued daily until the end of the study (n=15). Mice receiving NTZ vehicle (carboxymethylcellulose (#C4888, Sigma-Aldrich, Germany) BID served as controls (n=10). […]

Experiment [2] concerns polymicrobial sepsis induced by CLP surgery. Description: CLP-induced sepsis, survival and welfare scoring, NTZ before/after or only after surgery (Example 5). In kind it is in vivo, C57BL6J mice. As to conditions: for mortality at 55 hours post-surgery: control group 55%; for mice survived sepsis at the end of the study (day 7): untreated 20%. The procedure: Polymicrobial sepsis was induced by CLP surgery in C57BL6J mice, and NTZ was prepared and administrated per os, as described previously. […]
During the 6 days following the surgery, treatments with NTZ were made twice daily at 9 am and 5 pm at the dose of 100 mg/kg/day (p.o. BID) per mouse. Control mice received vehicle the same way to avoid any deviations between control and treated mice.

Experiment [3] deals with caspase 3/7 activity in HepG2 cells. Description: Staurosporine-induced apoptosis (caspase 3/7 activity) in HepG2 cells. The conditions noted are these: for inhibition at 6 µM: Homo sapiens, HepG2, 6 μM. In kind it is cell-based, human. On the procedure:
The human hepatoblastoma-derived HepG2 cell line was cultured as described in Example 2. Caspase 3/7 activity was assessed in 1.5×10^4 cells plated in a 384-well plate (#781080, Greiner, France). After cell adherence (8 hours), cells were serum starved for 16 h with or without TZ, the active metabolite of NTZ. […] Caspase 3/7 activity was measured as previously described.

The subject of experiment [4] is polymicrobial sepsis induced by CLP surgery. Description: CLP-induced sepsis, survival and welfare scoring, NTZ with or without 3-day pretreatment (Example 4). The experiment is classed as in vivo, C57BL6J mice. As to conditions: for mortality at 55 hours post-surgery: control group 60%; for mice survived sepsis at the end of the study: untreated 12.5%. On the procedure:
Polymicrobial sepsis was induced by CLP surgery in C57BL6J mice, as described in Example 1. NTZ was prepared as previously described and administrated per os at 100 mg/kg/day BID either starting 3 days before CLP (3 day pretreatment) or starting on the same day as the CLP surgery (without pretreatment) as shown in FIG. 5A. C57BI/6J male mice (8 week-old, Janvier, France) were divided into 3 groups of 24 mice each, after 7 days acclimation: • Group 1 received vehicle for 3 days before surgery and for 6 days after CLP surgery. • Group 2 received nitazoxanide (NTZ) for 3 days before surgery and then for 6 days after CLP surgery (pretreatment). • Group 3 received vehicle for 3 days before surgery and then NTZ for 6 days after CLP surgery (without pretreatment).
Treatments with NTZ were made twice daily at 9 am and […]. The day of the CLP surgery (Day 0), mice received NTZ or vehicle one hour before being anaesthetized (groups 2 and 3).
Welfare scoring of severity of murine sepsis model has been published to harmonize human end points and also to normalize grades observed between animals throughout experiments (Shrum B, Anantha R V, Xu S X et al. A robust scoring system to evaluate sepsis severity in an animal model. BMC Res Notes 2014; 7:233). Animals were individually observed, and changes were recorded and scored according to their intensity. Observations included changes in appearance, activity, response to stimuli, eyes opening, breathing quality and evolution of body weight. For each of these clinical signs, the severity was measured on a scale of 0 to 3. The evolution of the severity was followed and the mean score at each time point was calculated and plotted on graphs. Arbitrary, when mice die or are euthanized, they are scored at 4.

The test system of experiment [5] is caspase 3/7 activity in HepG2 cells. As to the kind of experiment: TNFα-induced apoptosis (caspase 3/7 activity) in HepG2 cells. In kind it is cell-based, human. As to conditions: for increased caspase 3/7 activity: 24 hours. On the procedure:
In order to evaluate the effect of NTZ on human hepatocytes that undergo a cellular stress induced by cytokines, the human hepatoblastoma-derived HepG2 cell line (#85011430, ECACC, UK) was cultured with or without TZ, the active metabolite of NTZ, in high-glucose DMEM medium (#41965, Gibco, France) supplemented with 10% of fetal bovine serum (FBS, #10270, Gibco), 1% penicillin/streptomycin (#15140, Gibco), 1% sodium pyruvate (#11360, Gibco) and 1% MEM non-essential amino acids (#11140, Gibco) in a 5% CO2 incubator at 37° ° C. To evaluate caspase 3/7 activity, which is a surrogate marker of apoptosis, 5×10^4 cells were plated in a 96-well plate (Thermo Fischer, Germany). After cell adherence (8 hours), cells were pre-treated with a dose range of 0.3 to 3 μM of TZ (Interchim, France), in FBS-deprived cell culture medium for 16 h. Thereafter, tumor necrosis factor α (TNFα) (#C6378, Promocell, Germany) was added to the wells at the dose of 10 or 30 ng/ml for additional 24 hours. Staurosporine (10 μM) (#19-123MG, Sigma-Aldrich, Germany) was used as a reference to induce apoptosis. Cells were incubated with staurosporine 3 hours before Caspase activity measurement. Caspase 3/7 activity was measured using Caspase Glow™ 3/7 assay (#G8093, Promega, USA). Luminescence was measured using a Spark microplate reader (#30086376, Tecan, USA). The amount of luminescence (RLU) directly correlates with caspase 3/7 activity.

Where [6] appears, read: NTZ BID T-1 h/T+3.5 h, 100 mg/kg/day p.o.
[7] abbreviates: NTZ QD T+3.5 h (100 mg/kg) then 50 mg/kg BID p.o.
The mark [8] stands for this setting: concomitant addition with staurosporine, without pretreatment.
Where [9] appears, read: NTZ per os 100 mg/kg/day BID from day of CLP, without pretreatment.
The mark [10] stands for this setting: NTZ per os 100 mg/kg/day BID with 3-day pretreatment.

The term mortality denotes the share of the test organisms that died. Usually inhibition stands for the share of the control response that was lost under treatment.

Turning to `C[C@@H](O)[C@H]1C(=O)N2C(C(=O)O)=C(S[C@@H]3CN[C@H](C(=O)Nc4cccc(C(=O)O)c4)C3)[C@H](C)[C@H]12` [Ertapenem], the “mice saved at the end of the study” value in experiment [1] (Ertapenem 10 mg/kg intraperitoneal, 1 h before surgery and daily after CLP, Day 7) stood at 10%.

As to `CC(=O)Oc1ccccc1C(=O)Nc1ncc([N+](=O)[O-])s1` [NTZ, [2-[(5-nitro-1,3-thiazol-2-yl)carbamoyl]phenyl]ethanoate], the “mice survived 7 days after intervention” value in experiment [1] (NTZ oral gavage 50 mg/kg BID, started 3 days before CLP) was found to be 33%. In experiment [1] (NTZ oral gavage 50 mg/kg BID, started 3 days before CLP, vehicle group 100% mortality at 3 days), the “mice still alive 3 days after surgery” value was 47%. Moreover, the “mortality at 55 hours post-surgery” value in experiment [2] (setting [6]) was 5%; in experiment [2] (setting [7]), 15%; in experiment [4] (setting [9]), 17%; in experiment [4] (setting [10]) it was 25%. Also, the results for the “mice survived sepsis at the end of the study (day 7)” value in experiment [2] (setting [6]) and in experiment [2] (setting [7]) were 80% and 70%, respectively. Further, the inhibition at 6 µM in experiment [3] (setting [8]) was 78%. For the same compound, the “mice survived sepsis at the end of the study” value came to 58.3% in experiment [4] (setting [9]) and 45.8% in experiment [4] (setting [10]).

`O=C(Nc1ncc([N+](=O)[O-])s1)c1ccccc1O` [TZ, tizoxanide]: in experiment [5] (Homo sapiens, 3 μM TZ, 16 h pretreatment, 10 ng/ml TNFα), the inhibition at 3 µM was determined as 40%. Further, in experiment [5] (TZ pretreatment, higher TNFα dose (30 ng/ml)), the “reduction of caspase activity” value was “this effect was confirmed with the higher TNFα dose”. The inhibition at 6 µM stood at 82% in experiment [3] (16 h pretreatment, staurosporine 30 μM) and 64% in experiment [3] (setting [8]).

For the compound `CN[C@@H]1C[C@H]2O[C@@](C)([C@@H]1OC)n1c3ccccc3c3c4c(c5c6ccccc6n2c5c31)C(=O)NC4` [staurosporine], the “increase of caspase 3/7 activity” value in experiment [3] (staurosporine 30 μM, 4 hours) is listed as 11 fold.

TNFα: the “increased caspase 3/7 activity” value is 1.5 fold in experiment [5] (10 ng/ml TNFα) and 1.7 fold in experiment [5] (30 ng/ml TNFα).
